Measured values taken from ChEMBL document CHEMBL1152209, “Synthesis and biological activity of previtamin D(3) analogues with A-ring modifications” (2008).

How the values were obtained:
[1] = target: T1, Vitamin D3 receptor (Sus scrofa) (UniProt A3RGC1); assay: Displacement of [3H]1-alpha,25-(OH)2D3 from pig VDR at EC50 relative to 1-alpha,25-(OH)2D3
T1 sequence (whole entry): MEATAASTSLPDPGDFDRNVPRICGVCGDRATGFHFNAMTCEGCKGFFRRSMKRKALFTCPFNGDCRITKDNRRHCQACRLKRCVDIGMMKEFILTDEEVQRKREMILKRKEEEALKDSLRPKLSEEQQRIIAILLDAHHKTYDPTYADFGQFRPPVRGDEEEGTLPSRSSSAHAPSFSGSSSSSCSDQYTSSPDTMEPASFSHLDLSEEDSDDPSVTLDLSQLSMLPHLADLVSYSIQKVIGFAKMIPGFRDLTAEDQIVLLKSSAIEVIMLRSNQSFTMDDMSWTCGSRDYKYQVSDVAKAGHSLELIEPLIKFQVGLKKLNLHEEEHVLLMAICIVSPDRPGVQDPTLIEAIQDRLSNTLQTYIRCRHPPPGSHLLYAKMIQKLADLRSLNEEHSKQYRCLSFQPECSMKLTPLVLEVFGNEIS

[2] = target: T2, Vitamin D-binding protein (Homo sapiens) (UniProt P02774); assay: Binding affinity to human DBP at EC50 in 4 degC relative to 1-alpha,25-(OH)2D3
T2 sequence (whole entry): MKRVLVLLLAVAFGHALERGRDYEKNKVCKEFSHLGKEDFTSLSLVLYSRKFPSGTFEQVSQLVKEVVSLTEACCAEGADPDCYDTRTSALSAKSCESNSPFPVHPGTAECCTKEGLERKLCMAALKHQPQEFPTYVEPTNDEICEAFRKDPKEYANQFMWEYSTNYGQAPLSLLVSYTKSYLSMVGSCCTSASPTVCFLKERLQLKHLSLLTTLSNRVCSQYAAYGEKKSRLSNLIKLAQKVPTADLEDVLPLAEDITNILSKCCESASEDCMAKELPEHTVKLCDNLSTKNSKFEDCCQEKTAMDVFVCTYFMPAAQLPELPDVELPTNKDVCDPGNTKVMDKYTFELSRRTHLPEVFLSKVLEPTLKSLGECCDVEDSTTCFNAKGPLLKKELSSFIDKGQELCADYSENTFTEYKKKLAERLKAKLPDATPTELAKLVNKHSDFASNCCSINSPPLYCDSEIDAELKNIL

MCF7 = assay: Inhibition of human MCF7 cell proliferation assessed as [3H]thymidine incorporation at EC50 after 72 hrs relative to 1-alpha,25-(OH)2D3; format: functional

SMILES | Activity [1] [%] | Activity [2] [%] | inhibition (INH) (MCF7) [%]
C[C@H](CCCC(C)(C)O)[C@H]1CC[C@H]2C(/C=C\C3=C[C@@H](O)[C@@H]4O[C@@H]4C3)=CCC[C@]12C | 0 | 0.9 | 0
C[C@H](CCCC(C)(C)O)[C@H]1CC[C@H]2C(/C=C\C3=C[C@@H](O)[C@H](OCCCO)[C@H](O)C3)=CCC[C@]12C | 0 | 0.5 | 0
